Measured values from ChEMBL document CHEMBL1201862, “PubChem BioAssay data set” (2004).
Calls of active or inactive are those of the source.

Tests used:
[1] = HEK293 cell viability, dose response, counter-screen for EBV LMP1 inhibitor project, dry powder, set 2 (AID 624374); format: functional
[2] = microbe, parasite or virus in culture; format: functional; details: Mycobacterium tuberculosis
[3] = THP-1 cell cytotoxicity, dose response, cytotoxicity control for non-replicating M. tuberculosis project (AID 489025); format: functional
[4] = HepG2 cell cytotoxicity, dose response, cytotoxicity control for non-replicating M. tuberculosis project (AID 489018); format: functional; details: Mycobacterium tuberculosis
cells [5] = format: functional
[6] = HeLa cell cytotoxicity, dose response, cytotoxicity control for MgcRacGAP inhibitor project (AID 624300); format: functional
[7] = target: T1, Rac GTPase-activating protein 1 (Homo sapiens, UniProt Q9H0H5); test: MgcRacGAP GTPase-activating activity inhibitors, confirmation, biochemical, ADP Hunter fluorescence, primary and confirmatory (AID 624330); format: functional
T1 sequence (Q9H0H5 whole entry): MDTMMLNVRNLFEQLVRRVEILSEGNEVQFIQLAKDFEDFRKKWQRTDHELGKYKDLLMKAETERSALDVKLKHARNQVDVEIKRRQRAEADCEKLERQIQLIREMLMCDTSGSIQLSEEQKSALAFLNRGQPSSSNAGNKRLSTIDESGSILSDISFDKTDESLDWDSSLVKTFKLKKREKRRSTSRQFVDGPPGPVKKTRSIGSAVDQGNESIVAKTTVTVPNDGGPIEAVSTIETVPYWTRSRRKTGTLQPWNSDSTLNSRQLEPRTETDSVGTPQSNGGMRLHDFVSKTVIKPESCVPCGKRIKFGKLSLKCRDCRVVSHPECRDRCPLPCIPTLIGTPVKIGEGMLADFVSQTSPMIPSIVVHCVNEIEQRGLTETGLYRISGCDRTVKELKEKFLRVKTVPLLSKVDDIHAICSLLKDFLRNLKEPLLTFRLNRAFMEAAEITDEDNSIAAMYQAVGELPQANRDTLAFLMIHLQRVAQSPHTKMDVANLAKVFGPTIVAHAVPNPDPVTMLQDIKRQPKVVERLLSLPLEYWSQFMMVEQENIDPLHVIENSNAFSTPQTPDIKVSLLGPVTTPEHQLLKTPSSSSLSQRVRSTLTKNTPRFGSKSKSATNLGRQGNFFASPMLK

[8] = inhibitors of HIV Env-driven cell fusion, dose response, cherry-pick (AID 652057); format: functional, cell-based
[9] = CEM21 lymphoblast cell cytotoxicity, dose response, cytotoxicity control for viral fusion inhibitor project, CellTiter-Glo luminescence, cherry-picked (AID 652042); format: functional, cell-based;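 further: potency for signal decrease meaning cytotoxicity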
[10] = ZM109 Env clade C HIV-1 fusion inhibitors, dose response, HeLa effector, CEM target cells, luciferase, cherry-pick (AID 652058); format: functional, cell-based
[11] = off-target signal loss in HeLa-CEM21 co-culture – HeLa F-luc CTL cells, cherry-picked, counter-screen for HIV-1 Env fusion inhibitor project, dose response (AID 652040); format: functional, cell-based;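 further: potency for signal decrease marking cytotoxic or nonspecific inhibition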
[12] = inhibitors of clade B AD8 Env fusion, dose response, cell-based, cherry-pick (AID 652062); format: functional;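 further: luciferase signal from cell-cell fusion driven by HIV-1 clade B AD8 Env; potency is for inhibitors of fusion seen as a drop in luminescence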
[13] = target: Potassium channel subfamily K member 9 (Homo sapiens, UniProt Q9NPC2); test: TASK3 (KCNK9) channel inhibitors, thallium flux, SAR follow-up, selectivity assay for TASK1 inhibitor project, cell-based, FluxOR thallium flux, concentration-response (AID 652211); format: functional;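 further: potency is for inhibitors of the channel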
[14] = target: Potassium channel subfamily K member 3 (Homo sapiens, UniProt O14649); test: TASK1 (KCNK3) potassium channel inhibitors, SAR follow-up, CHO cells, FluxOR thallium flux (AID 652212); format: functional
[15] = inhibitors of intracellular T. cruzi replication, confirmation, NIH3T3 host cells, beta-gal luminescence (AID 2044); format: functional, cell-based;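 further: intracellular parasites grown in NIH/3T3 mouse fibroblasts as host cells; luminescent beta-galactosidase reporter signal from transgenic T. cruzi replicating inside host cells; inhibitors lower the luminescence signal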
[16] = cytotoxicity toward NIH3T3 fibroblasts, dose response, counter-screen, cell-based, ATP luminescence, mouse fibroblasts (AID 2010); format: functional;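 further: cells exposed to compound for about 90 hours before reading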
[17] = target: Arf-GAP with SH3 domain, ANK repeat and PH domain-containing protein 1 (Homo sapiens, UniProt Q9ULH1); format: functional;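 further: biochemical fluorescence polarization dose–response screen measuring inhibition of ASAP1; ASAP1 GAP domain stimulating GTP hydrolysis by truncated human ARF1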
cells [18] = test: cells
[19] = system: Streptococcus sp. 'group A'; test: growth inhibition of control SK(-) GAS strain, dose response, counter-screen for streptokinase expression inhibitor project, luminescence, kanamycin, BacTiterGlo, confirmation (AID 1900); format: functional, organism-based
Streptokinase A = target: T2, Streptokinase A (Streptococcus pyogenes serotype M1, UniProt P10520); test: S. pyogenes streptokinase expression inhibitors, potency, dose response, plasminogen activation absorbance, OD405 (AID 1914); format: functional, Streptococcus pyogenes M1 GAS;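 further: secreted streptokinase activity via plasminogen activation per viability signal from cell pellet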
T2 sequence (P10520 whole entry): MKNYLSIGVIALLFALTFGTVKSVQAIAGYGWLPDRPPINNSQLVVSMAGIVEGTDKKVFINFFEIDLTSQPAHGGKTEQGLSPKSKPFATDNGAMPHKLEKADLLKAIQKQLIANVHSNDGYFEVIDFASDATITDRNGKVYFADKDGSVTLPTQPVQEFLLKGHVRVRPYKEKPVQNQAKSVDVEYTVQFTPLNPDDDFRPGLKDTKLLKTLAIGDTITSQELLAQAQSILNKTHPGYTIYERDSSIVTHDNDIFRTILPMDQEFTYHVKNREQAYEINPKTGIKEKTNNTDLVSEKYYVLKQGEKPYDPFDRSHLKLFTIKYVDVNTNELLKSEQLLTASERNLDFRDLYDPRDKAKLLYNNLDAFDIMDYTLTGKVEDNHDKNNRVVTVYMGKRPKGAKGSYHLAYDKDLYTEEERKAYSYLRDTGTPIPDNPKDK

Streptococcus = test: Group A Streptococcus viability loss, dose response, counter-screen for streptokinase expression inhibitor project, luminescence, BacTiterGlo (AID 1915); format: functional, organism-based;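 further: potency for reduction of bacterial viability or growth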
[20] = target: Broad substrate specificity ATP-binding cassette transporter ABCG2 (Homo sapiens, UniProt Q9UNQ0); test: ABCG2 efflux pump inhibitors, dose response, Ig-MXP3 cells, flow cytometry (AID 1690); format: functional
Chain of Broad substrate specificity ATP-binding cassette transporter ABCG2 (Q9UNQ0 whole entry): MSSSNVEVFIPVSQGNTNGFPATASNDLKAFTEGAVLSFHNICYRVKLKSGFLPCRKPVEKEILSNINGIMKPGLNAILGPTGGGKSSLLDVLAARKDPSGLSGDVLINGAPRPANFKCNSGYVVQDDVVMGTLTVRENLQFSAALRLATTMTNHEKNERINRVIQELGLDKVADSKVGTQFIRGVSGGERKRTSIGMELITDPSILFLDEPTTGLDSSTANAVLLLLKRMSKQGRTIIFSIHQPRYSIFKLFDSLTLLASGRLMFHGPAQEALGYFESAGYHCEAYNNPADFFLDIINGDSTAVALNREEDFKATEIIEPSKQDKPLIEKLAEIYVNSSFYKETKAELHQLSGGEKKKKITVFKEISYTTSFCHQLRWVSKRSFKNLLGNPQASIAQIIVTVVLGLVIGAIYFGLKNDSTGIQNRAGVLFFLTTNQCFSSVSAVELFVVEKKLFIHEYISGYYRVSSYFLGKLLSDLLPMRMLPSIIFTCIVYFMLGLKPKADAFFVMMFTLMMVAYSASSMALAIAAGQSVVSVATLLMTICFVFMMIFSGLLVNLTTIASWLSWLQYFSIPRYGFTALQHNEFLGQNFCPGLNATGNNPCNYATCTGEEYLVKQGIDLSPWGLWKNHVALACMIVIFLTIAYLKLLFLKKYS

Chain of Potassium channel subfamily K member 9 (Q9NPC2 whole entry): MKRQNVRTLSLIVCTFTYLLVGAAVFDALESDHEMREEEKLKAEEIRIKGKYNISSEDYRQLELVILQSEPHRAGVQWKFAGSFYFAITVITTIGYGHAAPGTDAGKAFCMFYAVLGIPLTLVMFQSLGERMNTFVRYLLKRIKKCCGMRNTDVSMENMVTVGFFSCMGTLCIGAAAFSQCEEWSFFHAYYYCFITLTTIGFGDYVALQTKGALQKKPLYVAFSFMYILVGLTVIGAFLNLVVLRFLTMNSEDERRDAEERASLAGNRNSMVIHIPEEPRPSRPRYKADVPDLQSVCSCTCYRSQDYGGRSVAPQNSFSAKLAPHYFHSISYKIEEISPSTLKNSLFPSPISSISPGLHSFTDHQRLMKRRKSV
Chain of Arf-GAP with SH3 domain, ANK repeat and PH domain-containing protein 1 (Q9ULH1 whole entry, the tested form may be a part): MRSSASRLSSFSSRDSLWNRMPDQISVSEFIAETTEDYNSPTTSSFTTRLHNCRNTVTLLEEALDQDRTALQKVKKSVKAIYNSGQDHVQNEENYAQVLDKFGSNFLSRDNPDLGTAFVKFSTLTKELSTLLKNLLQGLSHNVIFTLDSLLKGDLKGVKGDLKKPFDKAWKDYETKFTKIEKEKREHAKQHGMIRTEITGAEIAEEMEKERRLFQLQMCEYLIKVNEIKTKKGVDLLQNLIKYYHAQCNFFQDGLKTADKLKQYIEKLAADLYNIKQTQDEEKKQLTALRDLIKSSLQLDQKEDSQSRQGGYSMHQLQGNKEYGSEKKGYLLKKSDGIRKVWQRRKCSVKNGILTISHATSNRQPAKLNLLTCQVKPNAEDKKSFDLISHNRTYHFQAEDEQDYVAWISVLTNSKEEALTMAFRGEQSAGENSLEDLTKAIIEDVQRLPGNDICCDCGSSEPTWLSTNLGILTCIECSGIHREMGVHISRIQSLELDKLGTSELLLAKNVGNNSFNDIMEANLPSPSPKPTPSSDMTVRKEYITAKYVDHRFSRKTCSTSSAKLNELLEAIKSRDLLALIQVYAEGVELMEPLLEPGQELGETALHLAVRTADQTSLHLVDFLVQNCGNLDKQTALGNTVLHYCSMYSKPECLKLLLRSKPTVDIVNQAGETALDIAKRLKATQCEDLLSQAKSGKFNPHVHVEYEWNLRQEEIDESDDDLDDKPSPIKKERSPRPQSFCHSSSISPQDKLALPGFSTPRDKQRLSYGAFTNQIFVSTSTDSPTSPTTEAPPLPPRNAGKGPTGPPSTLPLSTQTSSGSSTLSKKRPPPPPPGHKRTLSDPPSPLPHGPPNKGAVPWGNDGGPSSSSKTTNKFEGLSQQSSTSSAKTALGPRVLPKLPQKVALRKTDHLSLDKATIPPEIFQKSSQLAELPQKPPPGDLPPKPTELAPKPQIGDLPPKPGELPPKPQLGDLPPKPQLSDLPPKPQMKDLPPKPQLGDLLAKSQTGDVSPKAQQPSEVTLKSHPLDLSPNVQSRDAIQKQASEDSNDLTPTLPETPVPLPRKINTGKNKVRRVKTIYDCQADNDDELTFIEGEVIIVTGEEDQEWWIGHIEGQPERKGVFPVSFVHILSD
Chain of Potassium channel subfamily K member 3 (O14649 whole entry): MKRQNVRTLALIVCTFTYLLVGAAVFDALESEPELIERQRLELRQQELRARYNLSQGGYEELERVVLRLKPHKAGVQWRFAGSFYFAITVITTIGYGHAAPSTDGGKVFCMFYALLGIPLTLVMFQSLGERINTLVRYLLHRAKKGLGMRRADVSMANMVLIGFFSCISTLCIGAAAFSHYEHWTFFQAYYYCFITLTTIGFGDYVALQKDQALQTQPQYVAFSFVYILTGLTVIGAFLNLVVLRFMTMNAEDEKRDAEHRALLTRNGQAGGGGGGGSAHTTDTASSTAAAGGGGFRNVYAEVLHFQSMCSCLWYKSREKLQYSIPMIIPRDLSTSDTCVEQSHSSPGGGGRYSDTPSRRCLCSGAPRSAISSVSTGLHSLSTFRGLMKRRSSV

Compound: CN(C)c1ccc2c(c1)[C@@H]1C[C@H](CC(=O)NCc3ccc(Oc4ccccc4)cc3)O[C@@H](CO)[C@@H]1O2
- AbsAC35 [1]: 41.71 µM

Compound: CC(NCCCOc1cccc2ccccc12)c1ccccc1 (centres undefined)
- CC50 [2]: 23.1 µM (active)
- CC50 [3]: 13.5 µM (active)
- CC50 [4]: > 20 µM (active)
- IC50 (cells [5]): 35.9 µM (active)
- CC50 [6]: 36.2 µM (active)
- IC50 [7]: 161 µM (active)
- AC50 [8]: 2.23 µM (active)
- AC50 [9]: 17.4 µM (active)
- AC50 [10]: 14.6 µM (active)
- AC50 [11]: 6.96 µM (active)
- AC50 [12]: 19.2 µM (active)

Compound: CCOc1ccccc1NC(=O)c1cccc(NC(=O)c2cccc(C)c2)c1
- IC50 [13]: 0.29 µM (active)
- IC50 [14]: 0.017 µM (active)

Compound: COc1cc2oc3ccc(C#Cc4ccccn4)cc3c(=O)c2cc1OC
- EC50 [15]: < 0.1 µM (active)
- EC50 [16]: > 60 µM (not active)
- IC50 [17]: 44.1 µM (inactive)
- EC50 (cells [18]): 0.183 µM (active)

Compound: COc1cccc(-c2nc(N3CC(C)CC(C)C3)c3ccccc3n2)c1O (centres undefined)
- EC50 [19]: 5.15 µM (active)
- EC50 (Streptokinase A): 6.53 µM (active)
- EC50 [15]: 1.84 µM (active)
- EC50 [16]: > 60 µM (not active)
- EC50 (Streptococcus): 82.5 µM (active)
- EC50 [20]: 1.04 µM (active)
